± gives the expanded uncertainty stated by the source.
Conditions: 298.15 K; 101.33 kPa; Liquid; Vibrating tube method

| SMILES | mass density [kg/m3] |
| --- | --- |
| CCCCCCCCC(C)=O [2-decanone] | 820.63 ± 0.24 |
| CCCCCOCCCCC [dipentyl ether] | 779.1 ± 0.24 |
| CCCCCCCCCCCC [dodecane] | 745.28 ± 0.25 |
| CCCCCCCCCCCCCCCC [hexadecane] | 770.31 ± 0.24 |
| CCCCCCCCCCCCCC [tetradecane] | 760.2 ± 0.24 |

From the NIST ThermoML archive (doi:10.1016/j.jct.2010.11.004)
